# Experimental data reported in patent US20170105910A1, “UV FILTER CAPSULE” (BASF SE, priority 2007, published 2017).
# Experiment: Solubility of Ethylhexyl Triazone in solvents (visual assessment)
# Type: physicochemical
# Protocol: The solubility of Ethylhexyl Triazone in the systems indicated can be determined as follows:
# The test substance is initially incorporated into the solvent (for example cosmetic emollient, as indicated in the table) at room temperature (about 20° C.-25° C.) with stirring in small beakers on a heatable magnetic stirrer (the stirring time here should not exceed about 30 min.). The assessment is carried out visually, i.e. it is checked whether a completely clear solution and without evident particles is present. The amounts, conditions and stirring times employed should be noted. If the substance is readily soluble, the concentration is increased by subsequent incorporation of further substance, for example by addition in 0.1 g steps with stirring. […] The assessment is carried out visually, if necessary with the aid of a microscope with lambda plate.
smiles,measurement,setting,value
"CCCCC(CC)COC(=O)c1ccc(Nc2nc(Nc3ccc(C(=O)OCC(CC)CCCC)cc3)nc(Nc3ccc(C(=O)OCC(CC)CCCC)cc3)n2)cc1 (centres unmarked) [Ethylhexyl Triazone, 2,4,6-tris[anilino(p-carbo-2′-ethyl-1′-hexyloxy)]-1,3,5-triazine]",solubility at room temperature,"in Spectrasolv DMDA, room temperature (20° C. to 25° C.)",about 55 % by weight
same,Ethylhexyl Triazone solubility at 25° C.,solvent C12-13 Alkyl Lactate,22%
same,Ethylhexyl Triazone solubility at 25° C.,solvent Di-C12-13 Alkyl Tartrate,35%
same,Ethylhexyl Triazone solubility at 25° C.,solvent Dioctyl Malate,13%
same,Ethylhexyl Triazone solubility at 25° C.,solvent Spectrasolv DMDA,about 55%
